Key:
Assay type in all cases: cell-based, human
[1] = test system: endometrial cancer cell lines; experiment: 3D proliferation assay with synergy analysis, endometrial panel; settings: VS-6766 combined with ZN-C3 (WEE1); panel of 6 endometrial cancer cell lines; 3D Matrigel, 7 days, CellTiter-Glo; FIG. 3, 4
Experimental: (§1) As examples, human cancer cell lines including non-small cell lung cancer (NSCLC), colorectal cancer (CRC), ovarian cancer and endometrial cancer were grown in 3D conditions. Briefly, 96-well plates were coated with 50 μL of Matrigel (100%) and incubated at 37° C. and 5% CO2 for 30 min in order for the Matrigel to solidify. Cells were seeded in 100 μL of 2% Matrigel containing medium. After an overnight incubation (17-22 hours), cells were treated with VS-6766 (RAF/MEK clamp)+/−DDR pathway inhibitor (e.g., DDR pathway inhibitor that targets WEE1, e.g., ZN-C3) for 7 days. VS-6766 was used at 1:5 dilutions starting at 5 μM and ZN-C3 was used at 1:3 dilutions starting at 5 μM. Cell viability was measured using the cell viability CellTiter-Glo assay.
(§2) Raw data and metadata files were processed with a custom R-script for single agent and combination activity. Bliss, Loewe, Highest Single Agent (HSA) and ZIP synergy analysis were performed to generate a composite synergy score. Summary graphics and reports were saved for visualization and further analysis.

[2] = test system: CRC KRAS mutant cell lines; experiment: 3D proliferation assay with synergy analysis, CRC panel; settings: VS-6766 combined with ZN-C3 (WEE1); panel of 9 CRC KRAS mt cell lines; 3D Matrigel, 7 days, CellTiter-Glo; FIG. 1, 2
Experimental: as §1, §2

[3] = test system: NSCLC KRAS mutant cell lines; experiment: 3D proliferation assay with synergy analysis, NSCLC panel; settings: VS-6766 combined with ZN-C3 (WEE1); panel of 9 NSCLC KRAS mutant cell lines; 3D Matrigel, 7 days, CellTiter-Glo; FIG. 1, 2
Experimental: as §1, §2

[4] = test system: ovarian cancer cell lines; experiment: 3D proliferation assay with synergy analysis, ovarian panel; settings: VS-6766 combined with ZN-C3 (WEE1); panel of 12 ovarian cancer cell lines; 3D Matrigel, 7 days, CellTiter-Glo; FIG. 3, 4
Experimental: as §1, §2

Measured: synergy with ZN-C3 in reducing cell viability (composite of Bliss, Loewe, HSA and ZIP)

CNS(=O)(=O)Nc1nccc(Cc2c(C)c3ccc(Oc4ncccn4)cc3oc2=O)c1F [VS-6766]
synergistic: all assays above

From patent publication US20250099467A1, “COMBINATION THERAPY FOR TREATING ABNORMAL CELL GROWTH” (Verastem, Inc., priority 2022, published 2025)
